Experimental data from US12392781B2, “Deuterated indole heptamethine cyanine dyes” (University of Notre Dame du Lac, priority 2021, dated 2025).
pKd: −log10 of the molar value. Entries after “also recorded” stand apart in the source; their conditions may differ.

Columns and labels:
[1] = 20 μg/mL solution in water, 24 hours; cited from earlier work
[2] = Photobleaching under high intensity irradiation (150 W Xenon lamp, 620 nm long-pass filter); details: 6 h irradiation, 1.0 mM or 0.05 mM in water or ethanol, TLC
[3] = Stability of 1.0 mM aqueous solutions stored at 4° C. in the dark (1H NMR); format: physicochemical; details: for Purity of aqueous solution: 1.0 mM
Method: After 7 days and 28 days (separate samples), 1 mL aliquots were taken from each stock solution, the solutions were lyophilized, the solid residue was dissolved in methanol-d4 and ^1H NMR spectra were acquired.
After 7 days and 28 days (separate samples), 1 mL aliquots were taken from each stock solution, the solutions were lyophilized, the solid residue dissolved in methanol-d4 and ^1H NMR spectra were acquired.

[4] = Photophysical properties at room temperature (absorption, fluorescence, quantum yield); format: physicochemical; details: for λ abs max / λ em max / ε: room temperature; for ε: Beer-Lambert fit 1-5 μM; for ΦF (fluorescence quantum yield): absolute (integrating sphere) for ICG, ICG-d5, ICG-d7, relative to ICG for 1; for Brightness: in M^-1 cm^-1 (unit assumed)
Method: Reagents and solvents were purchased from Sigma-Aldrich, VWR, Oakwood, Thermo Fisher and used without further purification unless stated otherwise. Column chromatography was performed using Biotage Sfär C18 Duo columns (part #FSUD-0401). Reverse- phase thin layer chromatography (TLC) experiments were performed on C18 TLC plates with F254s indicator (MilliporeSigma, part #1.15683). ^1H NMR spectra were recorded on a Bruker 500 NMR spectrometer. Chemical shifts are presented in ppm and referenced by residual solvent peak. High-resolution mass spectrometry (HRMS) was performed using a time-of-flight (TOF) analyzer with electrospray ionization (ESI), with sample dilution in water/acetonitrile as the standard produre. Electronic absorption spectra were recorded on an Evolution 201 UV/vis spectrometer with Thermo Insight software. Fluorescence spectra were collected on a Horiba Fluoromax-4 fluorometer with a maximum detection wavelength of 850 nm. Analyte solutions were prepared on the lab bench (exposed to air and light) using in HPLC grade water (Sigma-Aldrich), dimethylsulfoxide (Sigma-Aldrich), pH 7.4 1× phosphate buffered saline (Thermo Fisher) or fetal bovine serum (Sigma-Aldrich). Stock solutions for spectroscopy studies were prepared and used within 2 hours. All absorption and fluorescence spectra were collected using quartz cuvettes (1 mL, 1 cm path length).
Samples were excited at 730 nm with optical density≤0.05. First, photons were recorded with an integrating sphere after the excitation of a blank solvent reference, then the reference was replaced by a sample solution, and the spectrum (720-875 nm) was acquired again. The quantum yield was calculated by the equation below:
[formula] where P is the number of photons, F is the fluorescence intensity and E is the intensity at the excitation wavelength. Experiments were conducted in triplicate, with the reported absolute quantum yields corresponding to the mean value±standard deviation.
The fluorescence spectrum of each solution was obtained with excitation at 720 nm, and the integrated area was used to calculate the quantum yield according to the following equation:
[formula] where η is the refractive index of the solvent, I is the integrated fluorescence intensity, and A is the absorbance at a chosen wavelength. The estimated error for this method is ±15%.

[5] = molecular target: bovine serum albumin (BSA) (Bos taurus, UniProt P02769); assay: Bovine serum albumin (BSA) binding by tryptophan fluorescence quenching titration; details: pH 7.4 PBS buffer, 37° C.; for Association constant Ka, titration isotherm fitted to 1:1 model: N=3
bovine serum albumin (BSA), sequence (P02769 25-607): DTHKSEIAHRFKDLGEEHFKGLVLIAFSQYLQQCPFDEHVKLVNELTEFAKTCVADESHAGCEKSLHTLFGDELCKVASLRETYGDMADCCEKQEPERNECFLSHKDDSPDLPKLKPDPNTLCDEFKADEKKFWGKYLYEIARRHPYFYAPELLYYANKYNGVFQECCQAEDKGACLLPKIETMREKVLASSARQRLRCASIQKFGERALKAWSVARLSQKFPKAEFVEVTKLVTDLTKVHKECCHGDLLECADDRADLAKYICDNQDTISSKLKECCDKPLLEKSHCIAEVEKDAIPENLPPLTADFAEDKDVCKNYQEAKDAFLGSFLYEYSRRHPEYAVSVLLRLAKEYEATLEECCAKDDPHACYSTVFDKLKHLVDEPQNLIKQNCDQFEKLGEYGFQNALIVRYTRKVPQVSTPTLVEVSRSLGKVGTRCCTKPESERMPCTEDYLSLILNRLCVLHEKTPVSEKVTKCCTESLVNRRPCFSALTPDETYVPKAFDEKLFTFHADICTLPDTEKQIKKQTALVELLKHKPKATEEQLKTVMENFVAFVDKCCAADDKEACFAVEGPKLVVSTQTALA
Method: The titration experiments measured quenching of bovine serum albumin (BSA, 1 mL of 2 μM solution in pH 7.4 PBS buffer) tryptophan fluorescence at 37° C. as dye was added incrementally. A fluorescence spectrum (ex: 280 nm, slit width: 2 nm) was acquired after each dye aliquot was added (2 μL of 1 mM dye stock solutions in water). After each aliquot addition, the solution was mixed and allowed to equilibrate at 37° C. for 5 min before spectral acquisition. Association constants were determined by plotting the change in fluorescence intensity at 345 nm verses molar equivalents using 1:1 binding stoichiometry on the BindFit software. Experiments were done in triplicates. Equations for determining association and dissociation constant are shown below:
[formula] [formula] where F is the fluorescence intensity of tryptophan after adding certain amount of dye, k is the proportionality constant for BSA tryptophan under the experimental condition, Ka is the association constant, [BSA]

[6] = cited from earlier work
[7] = Stability of 1.0 mM aqueous stock solutions at room temperature under low photon intensity storage (1H NMR, reverse phase TLC); details: for Stability of stored stock solution, ICG versus ICG-d5 (degradation to oxidative dimer): one week; for Stability of stored stock solution, ICG versus ICG-d5 (degradation to oxidative dimer) / Conversion to oxidative dimer: reverse phase TLC; for Conversion to oxidative dimer: 3-day old 1.0 mM stock solution, primarily in the dark at room temperature
Method: Every day, a 50 μL aliquot was removed from each stock solution, lyophilized, and stored as a solid at −20° C.
At each time point, a 1.0 mL aliquot was taken from the stock solution, the aliquot was lyophilized, the solid residue was dissolved in 0.60 mL of methanol-d4, and a ^1H NMR spectrum was acquired.
The solutions were stored at room temperature and low photon intensity conditions (only exposed to lab lights during sample preparation and when aliquots were removed from samples). After 72 h and 120 h, 1 mL aliquots were taken from each stock solution and lyophilized. In each case, the solid residue was dissolved in 0.6 mL of methanol-d4 and a ^1H NMR spectrum was recorded.
The second set of dye stability experiments were designed to mimic the low photon intensity storage conditions experienced by a typical reconstituted dose in water before it is administered in a clinical setting. Thus, stock solutions of the dyes were exposed to the atmosphere and laboratory lights during the initial reconstitution and periodic sampling, but otherwise stored as capped vials in the dark at room temperature.

[8] = 1.0 mM in water, room temperature, low photon intensity, storage 72 h, 1H NMR
[9] = 1.0 mM in water, room temperature, low photon intensity, storage 120 h, 1H NMR
[10] = 1.0 mM in water, room temperature

SMILES	Purity of aqueous solution ([3]; 7 days storage) [%]	Purity of aqueous solution ([3]; 28 days storage) [%]	λ abs max ([4]; DMSO) [nm]	λ em max ([4]; DMSO) [nm]	ε ([4]; DMSO)	ΦF (fluorescence quantum yield) ([4]; DMSO) [%]	Brightness ([4]; DMSO)	λ abs max ([4]; FBS) [nm]	λ em max ([4]; FBS) [nm]	ε ([4]; FBS)	ΦF (fluorescence quantum yield) ([4]; FBS) [%]	Brightness ([4]; FBS)	Association constant Ka, titration isotherm fitted to 1:1 model [5]	Weight percentage remaining in aqueous stock solution [7, 8] [wt %]	Weight percentage remaining in aqueous stock solution [7, 9] [wt %]	Stability of stored stock solution, ICG versus ICG-d5 (degradation to oxidative dimer) [7, 10]	Conversion to oxidative dimer [7] [%]	other results
CC1(C)C(/C=C/C=C/C=C/C=C2/N(CCCCS(=O)(=O)[O-])c3ccc4ccccc4c3C2(C)C)=[N+](CCCCS(=O)(=O)[O-])c2ccc3ccccc3c21.[Na+] [ICG, Indocyanine Green, reference compound]	85	52	795	820	224,000 M^−1cm^−1	16.7 ± 0.6	37,000	800	813	197,000 M^−1cm^−1	9.7 ± 0.4	19,000	(3.4±0.5)×10^5 M^−1	73.6 ± 1.7	67.4 ± 1.0	more degradation	~20	ICG remaining [1]: 20%; Photostability versus concentration and solvent [2]: 1.0 mM ICG solution in water is more photostable than a 0.05 mM ICG solution in water; Water solubility [6]: 1000 µg/mL; Effect of H2O2 on formation of oxidative dimer 1 ([7]; 1.0 mM in water, 5 h, H2O2 10 molar equivalents, TLC): higher amount of oxidative dimer 1; Effect of air and light exposure on formation of oxidative dimer 1 ([7]; 1.0 mM in water, 30 h, room temperature, TLC and NMR): inhibits formation of oxidative dimer 1; Effect of additives on dimerization to oxidative dimer 1 ([7]; 1 mM in water, additives 10 molar equivalents, 24 h, room temperature, low photon intensity, TLC): promoted by the presence of NaI; also recorded: stopped by base (NaHCO3 and NaOAc), singlet oxygen quencher (NaN3) and reductant (Na2SO3 and Na ascorbate); Dimerization in water versus ethanol ([7]; 1.0 mM, 48 h, room temperature, low photon intensity, TLC): favored in water; Degradation to oxidative dimer 1 versus concentration ([7]; water, different concentrations, 72 h, room temperature, low photon intensity, 1H NMR): slower at higher concentrations
[2H]C(=C\C1=[N+](CCCCS(=O)(=O)[O-])c2ccc3ccccc3c2C1(C)C)/C([2H])=C([2H])/C([2H])=C([2H])/C=C1/N(CCCCS(=O)(=O)[O-])c2ccc3ccccc3c2C1(C)C.[Na+] [ICG-d5, Indocyanine Green-d5]	99	85	793	819	253,000 M^−1cm^−1	19.8 ± 0.5	49,000	796	813	205,000 M^−1cm^−1	10.5 ± 0.3	21,000	(3.8±0.6)×10^5 M^−1	86.0 ± 0.8	80.9 ± 1.2	substantially more stable	~2	Stability of stock solution in a refrigerator ([3]; 7 and 28 days): increased stability in a refrigerator
CC1(C)C(=CC=CC=C(C=CC2=[N+](CCCCS(=O)(=O)[O-])c3ccc4ccccc4c3C2(C)C)C(C=CC2=[N+](CCCCS(=O)(=O)[O-])c3ccc4ccccc4c3C2(C)C)=CC=CC=C2N(CCCCS(=O)(=O)O)c3ccc4ccccc4c3C2(C)C)N(CCCCS(=O)(=O)O)c2ccc3ccccc3c21 [compound 1]																		pKd ([5]; fluorescence titration, 2 μM BSA, read-out: Dissociation constant (Kd) of BSA binding): 4.47
